In paper PMC8847585, “Induction of senescence-associated secretory phenotype underlies the therapeutic efficacy of PRC2 inhibition in cancer” (Cell Death & Disease, 2022):

What was measured:
HeLa cells = test: Cancer cell proliferation, viable cell count; format: cell-based; details: up to 15 days
Description: (§1) Viable cell numbers were counted every 3 days up to 15 days by Vi-CELL (Beckman Coulter). For cell cycle analysis, MAK683 treated cells were fixed with pre-chilled 70% ethanol and kept at -20 degree overnight. On the second day, the cells were washed with cold PBS twice and collected by spin at 1000 rpm, digested with RNase A, then stained with 10 μg /mL Propidium Iodide in PBS solution for 30 min at room temperature. The stained cell samples were filtered through 70 μm cell strainer, and the staining signals were detected using flow cytometer (BD Fortessa). The acquired data were further analyzed by Modfit LT.

MCAS cells = test: Cancer cell proliferation, viable cell count; format: cell-based; details: up to 15 days
Description: as §1

RD cells = test: Cancer cell proliferation, viable cell count; format: cell-based; details: up to 15 days
Description: as §1

A2780 cells = test: Cancer cell proliferation, viable cell count; format: cell-based; details: A2780 (ARID1A-deficiency), up to 15 days
Description: as §1

H3K27me3 in HeLa cell = test: Inhibition of cellular H3K27me3 (western blot quantification); format: cell-based; details: Homo sapiens, 72 hr of treatment, n = 3
Description: Cells were washed once with cold PBS and lysed by RIPA lysis buffer and incubated with 4 × SDS loading buffer at 95 °C for 10 min. Whole cell proteins were used for electrophoresis and then transferred to a nitrocellulose membrane. The membrane was blocked with Tris buffered saline containing 0.075% Tween-20 and 5% non-fat milk. Then the membranes were incubated with primary antibodies overnight at 4 °C. The next day, membranes were incubated with secondary antibodies for 1 h at room temperature.

[1] = system: WSU-DLCL2 (EZH2-Y641F) cell; test: Anti-proliferation of lymphoma cell WSU-DLCL2, viable cell count; format: cell-based; details: Homo sapiens, WSUDLCL2, 216 h, read-out: IC50 of proliferation inhibition
Description: as §1

G401 xenograft tumors = test: Subcutaneous G401 xenograft tumor study; format: in vivo, mice
Description: (§2) The animal study design and performance were evaluated and approved by Institutional Animal Care and Use Committee of ShanghaiTech University under the document number of 20201225001 and following the internationally recognized guidelines on animal welfare. To establish G401 xenograft models, WT G401 or p16 knock out cells were washed and resuspended in cold PBS and mixed with Matrigel at 1:1 (v/v) to reach the final ratio of 5 × 10^6 cells per 200 μL. Then the tumor cell mix were injected subcutaneously into the right flank of female Balb/c nude mice (5–6 weeks of age).
(§3) When tumor volume reached around 60-350 mm^3, the mice were numbered and randomized into vehicle or 100 mg/kg MAK683 treatment groups. The random numbers were generated using Excel (Software). The mice with tumor size out of the range were not included in the study. Empirically, at least 6 mice were included for each group. For compound dosing, MAK683 was resolved and suspended in water with 0.5% HPMC and 0.5% Tween at the concentration of 10 mg/mL. Dosing without blinding took place very day in the morning around 8 am. Mice weight and tumor volumes are measured and recorded every 3 days. Tumor volumes were calculated based on perpendicular length and width caliper measurements using the following formula: tumor volume (mm^3) = 0.5 × (length × width^2).
(§4) Tumor tissues were fixed in freshly-prepared 4% PFA for 24 hours, dehydrated through 30%, 50%, 70%, 85%, and 90% ethanol five-minute each, and 100% ethanol triple, permeabilized through xylene five-minute twice and then embedded in paraffin, and finally cut into 5 μm-thick sections. The sections were de-paraffinized with xylene for 10 min triple, rehydrated with ethanol from high to low concentration five minutes each and dH2O twice. […] After cool down to room temperature, endogenous peroxidase was inactivated with 3% H2O2 in methanol. Then the sections were washed with dH2O twice, blocked with 5% normal goat serum in PBS with 0.25% Triton X-100 for 1 hour at room temperature followed by primary antibodies incubation overnight at 4 °C. After HRP-conjugated secondary antibodies were incubated for 1 hours at room temperature, the sections were visualized with DAB. For quantification of Ki-67, H3K27me3 or ITGA2 positivity, the ratios of DAB positive cells to total cells in five representative fields were counted. For quantification of F4/80 positivity, the ratios of DAB positive area to total cells were counted. Five 40 × objective magnification fields per selection were counted and averaged.
Cell senescence study was used by Beyotime in Situ β-galactosidase Staining Kit. Adherent cells were fix by fix-buffer for 15 min at room temperature and wash with PBS twice, then stain by stain-buffer mixture at 37 °C overnight. Frozen tissue sections were counterstained with eosin.

p16 KO xenograft tumors = test: Subcutaneous p16 KO G401 xenograft tumor study; format: in vivo, mice
Description: as §2, §3, §4
Cell senescence study was used by Beyotime in Situ β-galactosidase Staining Kit. Adherent cells were fix by fix-buffer for 15 min at room temperature and wash with PBS twice, then stain by stain-buffer mixture at 37 °C overnight. […]

[2] = Body weight of tumor-bearing animals; format: in vivo; details: 100 mg/kg daily, G401 xenograft-bearing mice, 25 days
Description: as §3

Hs700T cells = test: Cancer cell proliferation, viable cell count; format: cell-based; details: Hs700T (SMARCA4-deficiency), up to 15 days
Description: as §1

A204 cells = test: Cancer cell proliferation, viable cell count; format: cell-based; details: A204 (SMARCB1 deficiency), up to 15 days
Description: as §1

G401 cells = test: Cancer cell proliferation, viable cell count; format: cell-based; details: G401 (SMARCB1 deficiency), up to 15 days
Description: as §1

G402 cells = test: Cancer cell proliferation, viable cell count; format: cell-based; details: G402 (SMARCB1 deficiency), up to 15 days
Description: as §1

p16 KO G401 cells = test: Proliferation of p16 KO G401 cells, viable cell count; format: cell-based; details: p16 KO G401 clones vs G401; MAK683 at 1 μM (proliferation), 3 μM 3 days (cell cycle)
Description: as §1
Two pairs of guide RNAs (Supplementary Table 1) targeting the exon2 of human CDKN2A (NM_000077) were designed using ChopChop website. gRNA oligos were synthesized, annealed and subcloned into the pSpCas9(BB)-2A-GFP (PX458). G401 and A2780 cell lines were transfected with the resultant plasmids, cultured for 48 h, and then applied to the single cell sorting for selecting GFP-positive cell by flow cytometer. Single cell clones were first cultured each well of 96-well plate, and then gradually expanded in larger cultures for further experiments. […]

[3] = 100 mg/kg po qd, 25 days treatment
[4] = WT G401 tumor, 100 mg/kg, continuous treatment 46 days, treatment endpoint
[5] = p16 KO xenograft, 100 mg/kg, continuous treatment 46 days, treatment endpoint

## CCN(c1cc(-c2ccc(CN3CCOCC3)cc2)cc(C(=O)NCc2c(C)cc(C)[nH]c2=O)c1C)C1CCOCC1 [EPZ6438]
HeLa cells
  Sensitivity of proliferation to treatment: not sensitive
MCAS cells
  Sensitivity of proliferation to treatment: not sensitive
RD cells
  Sensitivity of proliferation to treatment: not sensitive
A2780 cells
  Sensitivity of proliferation to treatment: similarly inhibited the proliferation

## CS(=O)(=O)c1ccc(-c2cnc(NCc3ccco3)n3cnnc23)cc1 [EED226]
H3K27me3 in HeLa cell
  IC50: 210 nM
[1]
  IC50: 35.9 nM

## Cc1ncccc1-c1cnc(NCc2c(F)ccc3c2CCO3)n2cnnc12 [MAK683]
H3K27me3 in HeLa cell
  IC50: 1.01 nM
G401 xenograft tumors; [3]
  TGI: 67.20%
  Tumor volume T/C%: 30.55%
G401 xenograft tumors; 100 mg/kg po qd, day 25
  Ki-67 in treated tumors (IHC): significantly reduced
  SA-β-gal activity in treated tumors: increased
G401 xenograft tumors; 100 mg/kg po qd, day 25, 4 h post treatment
  H3K27me3 in treated tumors (IHC): significantly decreased
G401 xenograft tumors; [4]
  T/C%: 7.21%
  TGI: 91.25%
G401 xenograft tumors; WT tumors, 46 days
  Ki67 positivity in tumors: reduced
  SA-β-gal signal in tumors: increased
p16 KO xenograft tumors; p16 KO tumors, 46 days
  Ki67 positivity in tumors: reduced
p16 KO xenograft tumors; [5]
  T/C%: 35.81%
  TGI: 54.18%
p16 KO xenograft tumors; p16 KO xenografts, 46 days
  SA-β-gal signal in tumors: unchanged
[2]
  Animals' body weight: unaffected
[1]
  IC50: 1.15 nM
Hs700T cells
  Sensitivity of proliferation to treatment: moderately sensitive
A204 cells
  Sensitivity of proliferation to treatment: sensitive
G401 cells
  Sensitivity of proliferation to treatment: sensitive
HeLa cells
  Sensitivity of proliferation to treatment: not sensitive
MCAS cells
  Sensitivity of proliferation to treatment: not sensitive
G402 cells
  Sensitivity of proliferation to treatment: sensitive
RD cells
  Sensitivity of proliferation to treatment: not sensitive
A2780 cells
  Sensitivity of proliferation to treatment: moderately sensitive
p16 KO G401 cells
  Response of p16 KO cells to induced cell cycle arrest and proliferation blockage: partially resistant
